Where “and” joins values, the source holds several entries; their conditions need not be identical. Equal values may be shown once. Read-outs that look alike come from different tables or passages of the source. *1 amine or outer side, *2 acyl side, *3 side chain or, on linkers, in order; H or OH if unused. Where a SMILES comes first, the peptide text is derived from it. Bridges are numbered along the chain shown (N, C = ends). Roman numbers before positions name the chains, in order. [ ]: non-standard residue; d: D form. Actinocin(9to1) = Cc1c2oc3c(C)ccc(C(=O)[*:1])c3nc-2c(C(=O)[*:2])c(N)c1=O; NMeV = CN[C@H](C(=O)O)C(C)C; Sar = CNCC(=O)O

Holding throughout (type): cell-based
The subject of one assay is MCF-7/ADR cells. Kind of assay: Cytotoxic assay, MDR reversing effects of chemosensitizers with Adriamycin in human breast carcinoma MCF-7 resistant cells. Particulars: for Fold Resistance: ADR; for IC50: read-out: ADR IC50. As for the experimental part:
(§1) Cell Culture: HCT116/VM46 cells were selected from human colon carcinoma HCT116 cell line for resistance to VM26 and MCF-7/ADR cells were selected from human breast carcinoma MCF-7 cell line for resistance to Adriamycin. […] The cell lines were grown in tissue culture flasks containing McCoy's A medium and 10% fetal bovine serum. Cells were maintained at 37° C. in a humidified atmosphere containing 5% CO2 and subcultured every 5 days.
(§2) Cytotoxic Assay: The cells were seeded in 96 well microtiter plates at 5×10^3 cells per well and allowed to grow for 24 hours at 37° C. Cells were then incubated with decreasing amounts of antitumor agents: Adriamycin (100 μM, maximal concentration) or actinomycin D (17.6 ng/ml), for MCF-7 and HCT-116 cells, respectively. Chemosensitizers were added at variable concentrations ranging from 0.08 μM to 40 μM. In parallel, verapamil was used as positive control at the same concentrations. After 48 hours of incubation, the cells were washed, fixed and stained with crystal violet. Absorbance was read by Molecular Devices' microtiter plate reader at the wavelength of 595nm. The IC50 value (50% inhibition of cell growth) was determined from relative survival rates resulted from two to three independent experiments. The term "fold resistance" was defined as the ratio of the IC50 for antitumor drug in the presence or absence of chemosensitizer in resistant cells divided by the IC50 for antitumor drug in its sensitive counterpart. This value provides an estimate of the apparent potency of each reversing agent in enhancing drug effect.

The subject of a further assay is MCF-7 cells. Description: Cytotoxic assay, Adriamycin in sensitive human breast carcinoma MCF-7 cells. Particulars: MCF-7 (sensitive); ADR; no chemosensitizer; 2880 min. As for the experimental part: as §1
as §2, with “The term "fold resistance" was defined as the ratio of the IC50 for antitumor drug in the presence or absence of chemosensitizer in resistant cells divided by the IC50 for antitumor drug in its sensitive counterpart. This value provides an estimate of the apparent potency of each reversing agent in enhancing drug effect.” left out

The next assay has as its system HCT-116/VM46 cells. Description: Cytotoxic assay, MDR reversing effects of chemosensitizers with actinomycin D in human colon carcinoma HCT-116 resistant cells. Particulars: for Fold Resistance: ActD; for ActD IC50: 48 hours. As for the experimental part: as §1, §2
Another assay concerns HCT116 cells. Kind of assay: Cytotoxic assay, actinomycin D in sensitive human colon carcinoma HCT116 cells. Particulars: no chemosensitizer. As for the experimental part:
as §1
as §2, with “The term "fold resistance" was defined as the ratio of the IC50 for antitumor drug in the presence or absence of chemosensitizer in resistant cells divided by the IC50 for antitumor drug in its sensitive counterpart. This value provides an estimate of the apparent potency of each reversing agent in enhancing drug effect.” left out

Setting [1] is: chemosensitizer 0.4 μM, IC50 ratio to sensitive HCT116.

For orientation: IC50 means the concentration that gives 50% inhibition. In the case of `COc1cccc2c1C(=O)c1c(O)c3c(c(O)c1C2=O)C[C@@](O)(C(=O)CO)C[C@@H]3O[C@H]1C[C@H](N)[C@H](O)[C@H](C)O1` [ADR, reference compound], the “Fold Resistance” value was determined as 138.9 in the assay on MCF-7/ADR cells (no chemosensitizer, IC50 ratio to sensitive MCF-7, 2880 min) and 1 in the assay with MCF-7 cells. In addition, in the assay with MCF-7/ADR cells (Homo sapiens, 48 h), the 50% inhibitory concentration (IC50) is 50 µM.
With `C=C(CC)C(=O)c1ccc(OCC(=O)Nc2cc3c(cc2Cl)C(=O)N(CCN(CC)CC)c2ccc(C(F)(F)F)cc2O3)c(Cl)c1Cl` [Io], the “Fold Resistance” value in the assay with HCT-116/VM46 cells (setting [1]) came to 3.6. Moreover, the “ActD IC50” value in the assay on HCT-116/VM46 cells (chemosensitizer 0.4 μM) was 1.8 ng/mL.
Take `CCN(CC)CCN1C(=O)c2cc(Cl)c(NC(=O)C(C)C)cc2Oc2cc(C(F)(F)F)ccc21` [Ii, N-[2-Chloro-10,11-dihydro-10-[2-(diethylamino)ethyl-11-oxo-7-(trifluoromethyl)dibenz[b.f]1,4]oxezpin-3-yl]-2-methylpropionamide]: the “Fold Resistance” value worked out at 28.9 with MCF-7/ADR cells (chemosensitizer 0.67 μM, IC50 ratio to sensitive MCF-7) and 3.4 with HCT-116/VM46 cells (setting [1]). In addition, in the assay with MCF-7/ADR cells (chemosensitizer 0.67 μM, 48 hours), the IC50 is 10.4 µM. Further, in the assay on HCT-116/VM46 cells (chemosensitizer 0.4 μM), the “ActD IC50” value was 1.7 ng/mL.
In the case of `Cc1c2oc3c(C)ccc(C(=O)N[C@@H]4C(=O)N[C@H](C(C)C)C(=O)N5CCC[C@H]5C(=O)N(C)CC(=O)N(C)[C@@H](C(C)C)C(=O)O[C@@H]4C)c3nc-2c(C(=O)N[C@@H]2C(=O)N[C@H](C(C)C)C(=O)N3CCC[C@H]3C(=O)N(C)CC(=O)N(C)[C@@H](C(C)C)C(=O)O[C@@H]2C)c(N)c1=O` [ActD, reference compound] (I: T[dV]P[Sar][NMeV] / II: T[dV]P[Sar][NMeV]; ester I:1-I:C, II:1-II:C; linker I:N-II:N via Actinocin(9to1)), the “Fold Resistance” value in the assay on HCT116 cells (ActD, 2880 min) is 1.0; with HCT-116/VM46 cells (no chemosensitizer, IC50 ratio to sensitive HCT116, 2880 min, 2880 min) it was 15.6 and 20.0. Further, in the assay on HCT116 cells (48 hours), the “ActD IC50” value was 0.5 ng/mL.
As for `CCN(CC)CCN1C(=O)c2cc(Cl)c(NC(=O)C3CCCC3)cc2Oc2cc(C(F)(F)F)ccc21` [Ip], the “Fold Resistance” value in the assay on HCT-116/VM46 cells (chemosensitizer 0.24 μM, IC50 ratio to sensitive HCT116) is 3.4. In addition, the “ActD IC50” value in the assay with HCT-116/VM46 cells (chemosensitizer 0.24 μM) was found to be 1.7 ng/mL.

Values taken from patent US5173486A, “Dibenz[b,f][1,4]oxazepin-11(10H)-ones for multidrug resistance reversing agents” (Bristol-Myers Squibb Company, priority 1991, dated 1992).
